This passage reports IC50 results from patent publication EP0166353B1, “Benzofused lactams useful as antihypertensive agents and as cholecystokinin antagonists” (Merck & Co., Inc., priority 1984, dated 1986).

The experiment deals with CCK receptor. The experiment in a line: 125I-CCK-33 receptor binding assay. To be noted: tissue not stated (methods given for rat pancreas and guinea pig brain cortex membranes); read-out: IC₅₀, inhibition of specific ¹²⁵I-CCK-33 binding. On the procedure:
CCK-33 was radiolabeled with ¹²⁵I-Bolton Hunter reagent (2000 Ci/mmole) as described by Sankara et al. (J. Biol. Chem. 254: 9349-9351, 1979). Receptor binding was performed according to Innis and Snyder (Proc. Natl. Acad. Sci. 77: 6917-6921, 1980) with the minor modification of adding the additional protease inhibitors, phenylmethane sulfonyl fluoride and o-phenanthroline. The latter two compounds have no effect on the ¹²⁵I-CCK receptor binding assay.
Male Sprague-Dawley rats (200-350g) were sacrificed by decapitation. The whole pancreas was dissected free of fat tissue and was homogenized in 20 volumes of ice-cold 50 mM, Tris HCl (pH 7.7 at 25°C) with a Brinkmann Polytron PT 10. The homogenates were centrifuged at 48,000 g for 10 min. […] The supernatant was aspirated and discarded, pellets were counted with a Beckman gamma 5000. […]
Male Hartley guinea pigs (300-500g) were sacrificed by decapitation and the brains were removed and placed in ice-cold 50 mM, Tris HCl plus 7.58 g/L Trizma-7.4 (pH 7.4 at 25°C) Cerebral cortex was dissected and used as a receptor source. […] The supernatant was aspirated and discarded, pellets were counted with a Beckman gamma 5000.

As to `CCOC(=O)C(CCc1ccccc1)NC1CCc2ccccc2N(CC(=O)COC(C)=O)C1=O` (stereo not shown) [1-(3-Acetoxy-2-oxopropyl)-3-(1-carboethoxy-3-phenyl-1-propyl)amino homodihydrocarbostyril], the IC50 came out at 25 µM.
